Tested on: HSD1-transfected MCF7 cells
Experiment: Proliferation of 11βHSD1-transfected MCF7 cells (BrDU)
Type: cell-based, human
Conditions: 5 μM OCDO for 24 h
Method: FIG. 5. Ectopic expression of 11βHSD1 in MCF7 inhibits cell proliferation and OCDO reverses this effect. MCF7 cells were transfected by electroporation with a plasmid coding either the enzymes 11βHSD1 (HSD1) or the control empty vector (mock) and analyzed as followed: (A) the expression of 11βHSD1 was confirmed by immunoblotting using specific antibody against 11βHSD1 and normalized with actin; (B) The production of CT was determined by incubating the mock or the HSD1-transfected cells with ^14C-OCDO for 72 h at 37° C. The radioactive metabolites of interest were analyzed as in the legend of FIG. 4B. (C) The proliferation of the mock- or the HSD1-transfected MCF7 cells treated or not with 5 μM OCDO for 24 h were analyzed as in FIG. 2A. The results in B and C are the mean (±s.e.m) of three to five experiments, **P<0.01, ***P<0.001 (Student's t-test), ns: non specific.
MCF7 or HEK293T cells (5×10^6 cells) were transfected with 5 μg of the indicated plasmid using the NEON Transfection System and according to the manufacturer's recommendations. […] Several clones were analyzed by immunoblot analysis and real time RT-qPCR for the knock down of the expression of the protein of interest. […]

CC(C)CCC[C@@H](C)[C@H]1CC[C@H]2[C@@H]3CC(=O)[C@@]4(O)C[C@@H](O)CC[C@]4(C)[C@H]3CC[C@]12C [OCDO, 6-oxo-cholestan-3β,5α-diol]
effect on the decrease of cell proliferation induced by 11βHSD1 expression: reversed this effect
